Data reported in ChEMBL document CHEMBL5678795 (Eur J Pharmacol, 1999).
Peptide text beside a SMILES is read from it.

Tests used:
[1] = Selectivity ratio of IC50 for human ETA receptor stably expressed in CHO cells Membrane to IC50 human ETB receptor stably expressed in CHO cells Membrane; conditions: condition cardiovascular disease; condition vascular disease
[2] = target: T1, Endothelin receptor type B (Homo sapiens, UniProt P24530); test: Binding affinity to ETB receptor (unknown origin) assessed as inhibition constant
T1 sequence (P24530 whole entry): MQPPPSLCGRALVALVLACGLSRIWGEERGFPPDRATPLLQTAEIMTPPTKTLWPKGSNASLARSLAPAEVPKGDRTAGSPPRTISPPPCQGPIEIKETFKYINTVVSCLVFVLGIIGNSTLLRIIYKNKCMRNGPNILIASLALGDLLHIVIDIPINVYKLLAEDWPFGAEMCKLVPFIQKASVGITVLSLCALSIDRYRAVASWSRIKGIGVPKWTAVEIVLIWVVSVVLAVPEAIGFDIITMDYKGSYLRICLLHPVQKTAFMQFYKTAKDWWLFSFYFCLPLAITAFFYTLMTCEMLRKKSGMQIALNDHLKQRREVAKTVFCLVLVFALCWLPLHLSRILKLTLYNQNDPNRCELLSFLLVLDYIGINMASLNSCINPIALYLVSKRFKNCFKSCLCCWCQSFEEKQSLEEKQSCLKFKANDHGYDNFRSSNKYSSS

Endothelin-1 receptor [3] = target: T2, Endothelin-1 receptor (Homo sapiens, UniProt P25101); test: Binding affinity to ETA receptor (unknown origin) assessed as inhibition constant
T2 sequence (P25101 whole entry): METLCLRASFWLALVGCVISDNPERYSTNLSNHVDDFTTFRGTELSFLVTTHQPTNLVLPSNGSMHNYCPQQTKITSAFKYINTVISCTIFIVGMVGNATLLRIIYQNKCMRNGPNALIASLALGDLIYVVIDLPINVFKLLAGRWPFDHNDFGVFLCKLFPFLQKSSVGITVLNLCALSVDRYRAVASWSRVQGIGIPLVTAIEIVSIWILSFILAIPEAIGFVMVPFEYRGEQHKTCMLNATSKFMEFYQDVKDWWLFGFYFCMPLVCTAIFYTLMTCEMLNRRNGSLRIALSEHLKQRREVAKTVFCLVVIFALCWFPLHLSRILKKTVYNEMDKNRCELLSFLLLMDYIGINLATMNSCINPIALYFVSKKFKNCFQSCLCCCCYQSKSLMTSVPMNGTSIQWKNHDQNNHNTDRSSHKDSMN

Endothelin-1 receptor [4] = target: T2, Endothelin-1 receptor; test: Displacement of [125I]endhothelin-1 from human ETA receptor stably expressed in CHO cells Membrane assessed as inhibition constant at 25 degC incubated for 4 hrs by saturation binding assay; format: cell membranes
[5] = target: T1, Endothelin receptor type B; test: Displacement of [125I]endhothelin-3 from human ETB receptor stably expressed in CHO cells Membrane assessed as inhibition constant at 25 degC incubated for 4 hrs by saturation binding assay; format: cell membranes
[6] = target: Endothelin receptor type B (Oryctolagus cuniculus, UniProt Q9N0W7); test: Agonist activity to ETB receptor in rabbit pulmonary artery assessed as induction of vessel ring contraction; format: functional, tissue-based
[7] = Displacement of [125I]ET-1 from human ETB receptor expressed in green monkey COS7 cells Membrane assessed as inhibition constant incubated for 16 to 18 hrs by gamma counter analysis; format: cell membranes

Endothelin receptor type B (Oryctolagus cuniculus, UniProt Q9N0W7), sequence (Q9N0W7 whole entry): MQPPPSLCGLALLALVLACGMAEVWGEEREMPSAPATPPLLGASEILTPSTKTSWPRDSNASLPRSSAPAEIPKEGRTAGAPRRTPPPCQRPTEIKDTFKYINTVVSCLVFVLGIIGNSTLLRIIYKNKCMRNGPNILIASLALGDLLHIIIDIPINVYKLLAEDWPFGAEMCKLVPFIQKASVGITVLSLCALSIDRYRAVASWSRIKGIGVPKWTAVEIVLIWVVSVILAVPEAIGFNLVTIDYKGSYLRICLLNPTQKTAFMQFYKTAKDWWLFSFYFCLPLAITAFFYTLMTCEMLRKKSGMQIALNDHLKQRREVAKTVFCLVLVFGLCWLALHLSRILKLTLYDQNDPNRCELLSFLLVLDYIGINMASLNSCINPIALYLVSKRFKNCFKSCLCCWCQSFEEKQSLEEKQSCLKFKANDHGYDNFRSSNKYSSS

Ki [2] [nM]	SMILES	Ratio IC50 [1]	further results
–	CC(C)C[C@@H]1NC(=O)[C@@H](c2cccs2)NC(=O)[C@H](CC(=O)O)NC(=O)[C@H](CC(=O)N2CCN(c3ccccc3)CC2)NC(=O)[C@@H](CC(=O)O)NC(=O)[C@@H](Cc2c[nH]c3ccccc23)NC1=O (HELM PEPTIDE1{D.D.[O=C([C@H](N[*:1])c1cccs1)[*:2]].L.[dW].[dD]}|CHEM1{[c1ccc(N2CCN([*:1])CC2)cc1]}$PEPTIDE1,CHEM1,1:R3-1:R1|PEPTIDE1,PEPTIDE1,1:R1-6:R2$$$V2.0) [listing 1 of 2 here]	454	–
> 130	COc1ccccc1Oc1c(NS(=O)(=O)c2ccc(C)cn2)nc(-c2ccnc(-c3nnn[nH]3)c2)nc1OCCO [CLAZOSENTAN]	>1000	–
–	CCCc1cc(C(=O)O)ccc1OC(C(=O)NS(=O)(=O)c1ccc(C(C)C)cc1)c1ccc2c(c1)OCO2 [L-754142]	42	Ki (Endothelin-1 receptor [4]): 33.6 nM; Ki [5]: 1420 nM
–	CC[C@H](C)[C@H](NC(=O)[C@@H](NC(=O)[C@H](CC(=O)O)NC(=O)[C@H](CCC(N)=O)NC(=O)[C@H](Cc1cnc[nH]1)NC(=O)[C@@H]1CSSC[C@H](N)C(=O)N[C@@H]([C@@H](C)O)C(=O)N[C@H]2CSSC[C@H](NC(=O)[C@H](CCC(=O)O)NC(=O)[C@H](CCC(=O)O)NC(=O)[C@H](CC(=O)O)NC(=O)[C@H]([C@@H](C)O)NC(=O)[C@H](CCSC)NC(=O)[C@H](CC(=O)O)NC(=O)[C@H](CC(N)=O)NC2=O)C(=O)N[C@@H](CC(C)C)C(=O)N[C@@H](CC(N)=O)C(=O)N[C@@H](Cc2ccccc2)C(=O)N1)C(C)C)C(=O)N[C@@H](Cc1c[nH]c2ccccc12)C(=O)O	–	EC50 [6]: 1.57 nM
–	CCCOc1ccc2c(c1)[C@@H](c1ccc(OC)cc1OCCO)[C@H](C(=O)O)[C@H]2c1ccc2c(c1)OCO2	1000	–
7300	CC(C)C[C@H](NC(=O)N1CCCCCC1)C(=O)N[C@H](Cc1cn(C)c2ccccc12)C(=O)N[C@H](Cc1ccccn1)C(=O)O	–	–
960	COc1cc(OC)nc(O[C@@H](C(=O)O)C(OC)(c2ccccc2)c2ccccc2)n1	160	Ki (Endothelin-1 receptor [3]): 6 nM
–	Cc1cc2c(cc1CC(=O)c1sccc1S(=O)(=O)Nc1onc(C)c1Cl)OCO2 [SITAXENTAN]	>10000	Ki [7]: > 4300 nM
–	CCCOc1ccc2c(c1)[C@@H](c1ccc(OC)cc1OCC(=O)O)[C@H](C(=O)O)[C@H]2c1ccc2c(c1)OCO2 [SB-209670]	90	–

SMILES	Ki [2] [nM]	Ratio IC50 [1]	further results
CC(C)C[C@@H]1NC(=O)[C@@H](c2cccs2)NC(=O)[C@H](CC(=O)O)NC(=O)[C@H](CC(=O)N2CCN(c3ccccc3)CC2)NC(=O)[C@@H](CC(=O)O)NC(=O)[C@@H](Cc2c[nH]c3ccccc23)NC1=O (HELM PEPTIDE1{D.D.[O=C([C@H](N[*:1])c1cccs1)[*:2]].L.[dW].[dD]}|CHEM1{[c1ccc(N2CCN([*:1])CC2)cc1]}$PEPTIDE1,CHEM1,1:R3-1:R1|PEPTIDE1,PEPTIDE1,1:R1-6:R2$$$V2.0) [listing 2 of 2 here]	590	–	Ki (Endothelin-1 receptor [3]): 1.3 nM
